{
  "source": "patent US20250312469A1",
  "about": "(CANGET BIOTEKPHARMA, priority 2024, published 2025)",
  "key": {"CYP1A2": {"target": "CYP1A2 (Homo sapiens, UniProt P05177)", "sequence (P05177 whole entry, canonical isoform)": "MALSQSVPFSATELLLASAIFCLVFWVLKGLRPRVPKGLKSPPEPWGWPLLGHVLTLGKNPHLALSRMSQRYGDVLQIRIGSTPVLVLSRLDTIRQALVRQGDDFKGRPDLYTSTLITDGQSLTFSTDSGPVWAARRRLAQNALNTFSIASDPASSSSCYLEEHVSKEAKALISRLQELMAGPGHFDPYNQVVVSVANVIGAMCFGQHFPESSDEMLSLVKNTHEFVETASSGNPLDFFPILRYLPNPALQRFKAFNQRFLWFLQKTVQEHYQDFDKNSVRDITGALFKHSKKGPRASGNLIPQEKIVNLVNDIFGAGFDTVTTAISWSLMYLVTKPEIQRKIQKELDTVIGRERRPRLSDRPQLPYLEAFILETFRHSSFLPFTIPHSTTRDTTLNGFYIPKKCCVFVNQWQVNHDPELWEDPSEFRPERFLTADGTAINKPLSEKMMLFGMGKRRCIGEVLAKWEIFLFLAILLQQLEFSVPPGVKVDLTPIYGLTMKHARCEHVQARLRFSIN", "assay": "in vitro", "protocol": "(§1) The CYP reaction was initiated by adding a CYP probe substrate and incubating at 37° C. for 10-20 minutes, depending on the individual CYP isoform. The reaction was terminated with the addition of 400 μL ice-cold acetonitrile (ACN). […] Positive controls were performed in parallel using a known inhibitor of the individual CYP isoform. […] The samples were then transferred to 96-well plates and analyzed by LC-MS/MS (Appendix 1)."}, "CYP3A": {"test_system": "CYP3A", "assay": "in vitro", "protocol": "as §1"}, "DDX5": {"target": "DDX5 (Homo sapiens, UniProt P17844)", "sequence (P17844 whole entry)": "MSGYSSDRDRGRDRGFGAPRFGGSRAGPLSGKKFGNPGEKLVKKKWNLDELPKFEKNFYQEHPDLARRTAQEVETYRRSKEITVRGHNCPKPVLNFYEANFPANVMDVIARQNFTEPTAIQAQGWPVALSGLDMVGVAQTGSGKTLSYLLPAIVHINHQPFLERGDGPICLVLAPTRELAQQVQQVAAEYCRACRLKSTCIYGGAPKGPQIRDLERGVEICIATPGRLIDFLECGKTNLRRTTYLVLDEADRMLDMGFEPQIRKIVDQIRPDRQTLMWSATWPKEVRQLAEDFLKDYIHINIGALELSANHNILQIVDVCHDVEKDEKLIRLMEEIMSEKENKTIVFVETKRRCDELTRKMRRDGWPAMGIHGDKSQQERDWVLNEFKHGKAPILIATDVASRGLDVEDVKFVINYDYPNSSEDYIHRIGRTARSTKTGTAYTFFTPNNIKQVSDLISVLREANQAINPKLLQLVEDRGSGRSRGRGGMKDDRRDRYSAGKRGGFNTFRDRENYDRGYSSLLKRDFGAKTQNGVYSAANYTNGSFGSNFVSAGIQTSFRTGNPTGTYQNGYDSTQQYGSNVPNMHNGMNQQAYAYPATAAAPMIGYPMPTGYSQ", "assay": "Isothermal titration calorimetry (ITC), Flag-DDX5", "format": "binding", "details": "from ITC KD"}, "hERG": {"target": "hERG (Homo sapiens, UniProt Q12809)", "sequence (Q12809 whole entry)": "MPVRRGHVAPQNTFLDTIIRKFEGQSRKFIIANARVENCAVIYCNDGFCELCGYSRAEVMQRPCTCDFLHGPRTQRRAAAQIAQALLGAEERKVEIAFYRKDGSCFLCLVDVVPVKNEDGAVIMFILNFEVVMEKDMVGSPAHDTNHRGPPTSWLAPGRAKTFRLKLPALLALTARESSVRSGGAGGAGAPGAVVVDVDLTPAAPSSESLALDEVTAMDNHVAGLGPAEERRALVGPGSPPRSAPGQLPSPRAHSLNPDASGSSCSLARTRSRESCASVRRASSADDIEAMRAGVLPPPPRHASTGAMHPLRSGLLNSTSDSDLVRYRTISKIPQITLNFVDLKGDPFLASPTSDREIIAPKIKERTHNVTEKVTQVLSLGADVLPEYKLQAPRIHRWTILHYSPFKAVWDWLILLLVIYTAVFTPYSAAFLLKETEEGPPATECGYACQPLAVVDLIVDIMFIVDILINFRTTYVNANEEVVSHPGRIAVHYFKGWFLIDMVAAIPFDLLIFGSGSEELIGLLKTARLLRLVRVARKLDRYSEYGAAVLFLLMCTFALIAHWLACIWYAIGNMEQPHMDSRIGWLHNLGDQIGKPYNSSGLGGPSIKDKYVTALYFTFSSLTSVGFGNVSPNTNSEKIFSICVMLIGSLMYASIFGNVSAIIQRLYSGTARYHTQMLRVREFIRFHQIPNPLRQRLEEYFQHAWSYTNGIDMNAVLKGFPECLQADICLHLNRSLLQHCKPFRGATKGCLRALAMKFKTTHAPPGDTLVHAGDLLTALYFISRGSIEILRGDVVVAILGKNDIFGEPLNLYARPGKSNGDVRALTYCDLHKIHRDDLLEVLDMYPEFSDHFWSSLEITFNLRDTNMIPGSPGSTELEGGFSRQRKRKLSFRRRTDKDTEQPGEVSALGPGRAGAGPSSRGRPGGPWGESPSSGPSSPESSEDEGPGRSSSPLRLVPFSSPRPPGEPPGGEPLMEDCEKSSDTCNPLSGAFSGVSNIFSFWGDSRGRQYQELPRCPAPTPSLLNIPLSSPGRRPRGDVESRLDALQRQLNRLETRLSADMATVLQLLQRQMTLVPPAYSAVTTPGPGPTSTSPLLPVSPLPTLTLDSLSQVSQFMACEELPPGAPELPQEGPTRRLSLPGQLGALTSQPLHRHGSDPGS", "assay": "cell-based", "protocol": "All cell suspensions, buffers, and test compound solutions were at room temperature during the experiment. Briefly, Chinese hamster ovary (CHO) cells stably transfected with hERG (cell line obtained from Cytomyx, UK) were seeded in each well of a PatchPlate™ positioned over a small hole at the bottom of each well to form an electrical seal. The resistance of each seal was measured via a common ground electrode in the intracellular compartment and individual electrodes placed into each of the upper wells. Electrical access to the cell was then achieved by circulating a perforating agent, amphotericin B, underneath the PatchPlate™. The hERG channels were activated by applying a depolarizing step to +40 mV for 5 s and then clamped at […] for 4 s to elicit the hERG tail current, before returning to […] for 0.3 s. […] Each concentration was tested in 4 replicate wells on the PatchPlate™.\nAll cell suspensions, buffers and test compound solutions were at room temperature during the experiment. (2) The cells used were Chinese hamster ovary (CHO) cells stably transfected with hERG (cell line obtained from Cytomyx, UK). A single cell suspension was prepared in extracellular solution (Dulbecco's phosphate buffered saline with calcium and magnesium pH 7.2) and aliquots added automatically to each well of a PatchPlate™. The cells were then positioned over a small hole at the bottom of each well by applying a vacuum beneath the plate to form an electrical seal. The vacuum was applied through a single compartment common to all wells which was filled with intracellular solution (buffered to pH 7.2 with HEPES). The resistance of each seal was measured via a common ground electrode in the intracellular compartment and individual electrodes placed into each of the upper wells. Electrical access to the cell was then achieved by circulating a perforating agent, amphotericin B, underneath the PatchPlate™. (3) The pre compound hERG current was then measured. […] The hERG channels were then activated by applying a depolarizing step to +40 mV for 5 sec and then clamped at […] for 4 sec to elicit the hERG tail current, before returning to […] for 0.3 sec. […] (5) The IonWorks™ HT instrument automatically added test compound dilutions to the upper wells of the PatchPlate™ from a 96 well microtitre plate. The test compound was left in contact with the cells for 300 sec before recording currents using the same voltage step protocol as in the pre compound scan. […] (6) Each concentration was tested in 4 replicate wells on the PatchPlate™ (maximum of 24 data points).\nThe percentage inhibition was calculated using the following equation: […]"}, "[1]": {"target": "human serum albumin (HSA) (Homo sapiens, UniProt P02768)", "sequence (P02768 25-609)": "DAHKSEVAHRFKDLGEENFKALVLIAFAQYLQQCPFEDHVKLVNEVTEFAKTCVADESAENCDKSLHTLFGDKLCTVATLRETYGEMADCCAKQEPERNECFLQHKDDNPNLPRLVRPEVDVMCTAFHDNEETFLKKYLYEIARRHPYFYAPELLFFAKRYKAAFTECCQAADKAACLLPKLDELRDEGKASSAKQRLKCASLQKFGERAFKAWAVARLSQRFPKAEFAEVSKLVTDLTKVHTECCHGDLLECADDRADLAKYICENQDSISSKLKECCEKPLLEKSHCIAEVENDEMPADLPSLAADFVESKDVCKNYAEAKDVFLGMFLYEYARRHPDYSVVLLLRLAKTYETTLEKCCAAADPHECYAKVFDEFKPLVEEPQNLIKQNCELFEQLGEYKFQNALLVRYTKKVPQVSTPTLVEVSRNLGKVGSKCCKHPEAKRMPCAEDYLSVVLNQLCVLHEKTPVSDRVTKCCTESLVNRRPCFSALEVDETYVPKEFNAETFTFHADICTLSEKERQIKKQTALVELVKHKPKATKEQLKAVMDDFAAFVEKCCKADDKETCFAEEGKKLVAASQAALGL", "assay": "UV spectra (310-450 nm) with HSA", "format": "physicochemical"}, "TA1535": {"test_system": "TA1535", "assay": "Ames Bacterial Reverse Mutation Assay"}, "SK-ES-1 OS tumors": {"test_system": "SK-ES-1 OS tumors", "assay": "SK-ES-1 osteosarcoma xenograft", "format": "in vivo, SCID mice", "details": "weekly×4"}, "ABCG2/BCRP": {"target": "T1, ABCG2/BCRP (Homo sapiens, UniProt Q9UNQ0)", "T1 sequence (Q9UNQ0 1-655)": "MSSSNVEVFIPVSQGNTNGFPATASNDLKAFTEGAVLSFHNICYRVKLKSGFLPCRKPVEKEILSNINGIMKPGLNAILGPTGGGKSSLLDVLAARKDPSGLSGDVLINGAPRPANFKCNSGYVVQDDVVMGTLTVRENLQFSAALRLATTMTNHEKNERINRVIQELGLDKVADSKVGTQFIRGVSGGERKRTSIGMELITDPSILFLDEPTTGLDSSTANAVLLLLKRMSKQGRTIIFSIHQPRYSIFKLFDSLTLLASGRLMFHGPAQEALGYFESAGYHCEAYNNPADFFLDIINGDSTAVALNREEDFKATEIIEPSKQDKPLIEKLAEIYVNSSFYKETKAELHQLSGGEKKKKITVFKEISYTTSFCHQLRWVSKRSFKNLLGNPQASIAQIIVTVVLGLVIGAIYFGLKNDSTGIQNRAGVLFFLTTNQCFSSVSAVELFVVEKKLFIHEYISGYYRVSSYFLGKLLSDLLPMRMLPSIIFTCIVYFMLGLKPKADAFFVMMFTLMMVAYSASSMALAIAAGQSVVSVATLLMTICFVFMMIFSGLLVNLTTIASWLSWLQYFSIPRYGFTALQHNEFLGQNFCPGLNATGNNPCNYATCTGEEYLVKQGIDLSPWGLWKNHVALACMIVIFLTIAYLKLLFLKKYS", "assay": "ABCG2/BCRP inhibition (BCRP-MDCK, cladribine)", "protocol": "After 30 minutes the buffer was removed, replaced with fresh dosing solution/assay buffer, and time was recorded as 0. […] Each determination was performed in duplicate. […] Analytical conditions are outlined in Appendix 1."}, "[2]": {"details": "TA1535 partial repeat, 0.010 μM −S9"}, "[3]": {"details": "TA1535 partial repeat, 0.10 μM −S9"}, "[4]": {"details": "TA1535 partial repeat, 1.0 μM −S9"}},
  "note": "“And” between values parts separate entries of the source, which are not always exact repeats. Equal entries are not always repeated. “Also recorded” adds a separate entry of the source.",
  "data": [
    {"smiles": "CCC1(O)C(=O)OCc2c1cc1n(c2=O)Cc2cc3cc4c(cc3nc2-1)OCO4", "note": "(centres unmarked) [FL118]", "values": [
      {"measurement": "CYP1A2 inhibition", "setting": "CYP1A2; 1 μM", "result": "does not inhibit these 3 CYP isoforms"},
      {"measurement": "inhibition at 1 µM", "setting": "CYP1A2; human, microsomes, pH 7.4", "result": 0.1, "unit": "%"},
      {"measurement": "CYP3A inhibition", "setting": "CYP3A; 1 μM, testosterone probe", "result": "does not inhibit these 3 CYP isoforms"},
      {"measurement": "inhibition at 1 µM", "setting": "CYP3A; human, microsomes, pH 7.4", "result": 0, "unit": "%"},
      {"measurement": "FL118 binding to DDX5 versus Top1 (times stronger)", "setting": "DDX5", "result": "about 10"},
      {"measurement": "IC50", "setting": "hERG", "result": "> 1", "unit": "µM"},
      {"measurement": "effect on hERG activity", "setting": "hERG; CHO cells stably transfected with hERG, FL118 3-1000 nM", "result": "no inhibitory effects; also recorded: does not exhibit an inhibition of hERG activity"},
      {"measurement": "inhibition at 300 s, 0.003 µM", "setting": "hERG; human, pH 7.2", "result": 14.8, "unit": "%"},
      {"measurement": "inhibition at 300 s, 0.01 µM", "setting": "hERG; human, pH 7.2", "result": 18.7, "unit": "%"},
      {"measurement": "inhibition at 300 s, 0.03 µM", "setting": "hERG; human, pH 7.2", "result": 5.6, "unit": "%"},
      {"measurement": "inhibition at 300 s, 0.1 µM", "setting": "hERG; human, pH 7.2", "result": -5.2, "unit": "%"},
      {"measurement": "inhibition at 300 s, 0.3 µM", "setting": "hERG; human, pH 7.2", "result": -2.9, "unit": "%"},
      {"measurement": "inhibition at 300 s, 1 µM", "setting": "hERG; human, pH 7.2", "result": 19.9, "unit": "%"},
      {"measurement": "interaction with HSA (UV absorbance decrease)", "setting": "[1]; 10 μM in PBS with 4% HSA", "result": "strong interaction"},
      {"measurement": "interaction with HSA (UV absorbance decrease)", "setting": "[1]; 10 μM, high NaCl salt, 4% HSA", "result": "strong interaction"},
      {"measurement": "bacterial strain mutation", "setting": "TA1535", "result": "does not induce"},
      {"measurement": "Background Lawn Code", "setting": "TA1535; TA1535, 0.010 μM +S9", "result": 1},
      {"measurement": "Colony Counts Average", "setting": "TA1535; TA1535, 0.010 μM +S9", "result": 14},
      {"measurement": "Colony Counts Replicate 1-3", "setting": "TA1535; TA1535, 0.010 μM +S9", "result": "20 and 9 and 13"},
      {"measurement": "Background Lawn Code", "setting": "TA1535; TA1535, 0.010 μM −S9", "result": 1},
      {"measurement": "Colony Counts Average", "setting": "TA1535; TA1535, 0.010 μM −S9", "result": 39},
      {"measurement": "Colony Counts Replicate 1-3", "setting": "TA1535; TA1535, 0.010 μM −S9", "result": "39 and 37 and 41"},
      {"measurement": "Background Lawn Code", "setting": "TA1535; TA1535, 0.10 μM +S9", "result": 1},
      {"measurement": "Colony Counts Average", "setting": "TA1535; TA1535, 0.10 μM +S9", "result": 14},
      {"measurement": "Colony Counts Replicate 1-3", "setting": "TA1535; TA1535, 0.10 μM +S9", "result": "13 and 8 and 20"},
      {"measurement": "Background Lawn Code", "setting": "TA1535; TA1535, 0.10 μM −S9", "result": 1},
      {"measurement": "Colony Counts Average", "setting": "TA1535; TA1535, 0.10 μM −S9", "result": 61},
      {"measurement": "Colony Counts Replicate 1-3", "setting": "TA1535; TA1535, 0.10 μM −S9", "result": "54 and 62 and 67"},
      {"measurement": "Background Lawn Code", "setting": "TA1535; TA1535, 1.0 μM +S9", "result": 1},
      {"measurement": "Colony Counts Average", "setting": "TA1535; TA1535, 1.0 μM +S9", "result": 12},
      {"measurement": "Colony Counts Replicate 1-3", "setting": "TA1535; TA1535, 1.0 μM +S9", "result": "12 and 10 and 15"},
      {"measurement": "Background Lawn Code", "setting": "TA1535; TA1535, 1.0 μM −S9", "result": 1},
      {"measurement": "Colony Counts Average", "setting": "TA1535; TA1535, 1.0 μM −S9", "result": 25},
      {"measurement": "Colony Counts Replicate 1-3", "setting": "TA1535; TA1535, 1.0 μM −S9", "result": "23 and 21 and 30"},
      {"measurement": "Background Lawn Code", "setting": "TA1535; [2]", "result": 1},
      {"measurement": "Colony Counts Average", "setting": "TA1535; [2]", "result": 12},
      {"measurement": "Colony Counts Replicate 1-3", "setting": "TA1535; [2]", "result": "13 and 12 (2×)"},
      {"measurement": "Background Lawn Code", "setting": "TA1535; [3]", "result": 1},
      {"measurement": "Colony Counts Average", "setting": "TA1535; [3]", "result": 14},
      {"measurement": "Colony Counts Replicate 1-3", "setting": "TA1535; [3]", "result": "16 and 15 and 10"},
      {"measurement": "Background Lawn Code", "setting": "TA1535; [4]", "result": 1},
      {"measurement": "Colony Counts Average", "setting": "TA1535; [4]", "result": 12},
      {"measurement": "Colony Counts Replicate 1-3", "setting": "TA1535; [4]", "result": "11 and 13 and 12"},
      {"measurement": "mean revertant colonies over negative control", "setting": "TA1535; repeat assay, -S9 condition", "result": "less than 2 fold"},
      {"measurement": "antitumor efficacy", "setting": "SK-ES-1 OS tumors", "result": "effectively eliminated human osteosarcoma xenograft tumors"},
      {"measurement": "inhibition of BCRP transport of cladribine", "setting": "ABCG2/BCRP; 1.0 μM FL118", "result": "does not inhibit cladribine acting as a BCRP substrate"},
      {"measurement": "BCRP Inhibition Potential Classification", "setting": "ABCG2/BCRP; BCRP-MDCK, cladribine as substrate, 1.0 μM FL118 or 0.5 μM Ko143", "result": "Negative (without inhibitor, and reduced by <50 with inhibitor: Negative)"}
    ]}
  ]
}
